Experimental data published in PMC10350917 (Journal of Medicinal Chemistry, 2023).

Legend:
[1] = in vitro; conditions: human, plasma, pH 7.4
Method: (§1) The in vitro stability of MB076 and S02030 was evaluated by incubating the compounds in both buffer (pH 7.4) and human plasma at 37 °C over 48 h. Half-lives (t1/2) were then calculated for each compound.
(§2) Plasma and buffer stability samples were analyzed by monitoring the disappearance of the compounds using high-performance liquid chromatography-mass spectrometry (LC–MS) techniques.
Half-lives (t1/2) were calculated in Origin using a one-phase decay model with t1/2 = ln(2)/b, where b is the slope of a linear plot of natural logarithm (ln) of the remaining compound concentration (C) versus incubation time. Each condition was tested in triplicate.

[2] = tested on: ADC-33 in pBCSK(−) E. coli DH10B; test: Agar dilution AST, ADC-33; type: cell-based
Method: (§3) Susceptibility testing to standard antibiotics was performed by broth microdilution or agar dilution using an Oxoid replicator according to 2021 Clinical and Laboratory Standards Institute (CLSI) guidelines. MICs for CAZ, CTX, FEP, and TOL were determined using cation-adjusted Mueller Hinton MH broth, and MICs for FDC were done in iron-depleted cation-adjusted MH broth according to CLSI methods. MB076, S02030, and VAB were used at a fixed concentration of 10 mg/L. All MICs were interpreted according to the 2021 CLSI guidelines.[43]
(§4) blaADC-7 pBCSK- was cloned and expressed in E. coli DH10B cells as previously described.[44] All other blaADC variants were synthesized by GenScript according to the blaADC-7 pBCSK- strategy, cloning into the XbaI/BamHI sites of the pBCSK- vector.

[3] = target: ADC-30 (Acinetobacter baumannii, UniProt A7XM81); test: Inhibition kinetics (competition with nitrocefin), ADC-30; type: biochemical; conditions: 100 μM nitrocefin, 3 min pre-incubation
Method: (§5) For inhibition kinetics, utilizing nitrocefin (NCF) as a colorimetric substrate, the inhibition constant (Ki) of MB076 and S02030 BATSI with ADCs was determined using competition kinetics as previously described.[10],[25],[28],[34] The measurements of the initial velocities were performed with the addition of 100 μM NCF after a 3 min pre-incubation of the enzyme (2 nM) with increasing concentration of the inhibitor. […] The Ki value was corrected for the NCF affinity (KM values for each ADC variant listed in Table 1) with the Cheng–Prusoff[35] equation: [drawing 2]

[4] = tested on: ADC-212 in pBCSK(−) E. coli DH10B; test: Broth microdilution AST, ADC-212; type: cell-based
Method: as §3, §4

[5] = target: T1, ADC-33 (Acinetobacter baumannii, UniProt A7Y407); test: Inhibition kinetics (competition with nitrocefin), ADC-33; type: biochemical; conditions: 100 μM nitrocefin, 3 min pre-incubation
Method: as §5

[6] = target: ADC-7 (Acinetobacter baumannii, UniProt Q6DRA1); test: Inhibition kinetics (competition with nitrocefin), ADC-7; type: biochemical; conditions: 100 μM nitrocefin, 3 min pre-incubation, Cheng–Prusoff corrected
Method: as §5

[7] = target: ADC-162 (Acinetobacter baumannii, UniProt A0A2H4PPJ8); test: Inhibition kinetics (competition with nitrocefin), ADC-162; type: biochemical
Method: as §5

[8] = target: ADC variants; test: Inhibition kinetics, statement for all ADC variants; type: biochemical, Acinetobacter baumannii; conditions: bound stated for all ADC variants of the study
Method: as §5

[9] = physchem; conditions: buffer, pH 7.4
Method: as §1, §2
Standard solutions were prepared by adding the compound in DMSO (2.5 μM) to 0.1 M phosphate buffer pH 7.4 and MeOH. Solutions were vortexed, filtered, and analyzed by LC–MS (At=0). Samples were then prepared by adding a solution of the compound in DMSO (2.5 μM) to phosphate buffer pH 7.4 and incubating at 37 °C. At suitable time intervals, the reaction was stopped by the addition of MeOH. The solutions were vortexed and filtered. Degradation time courses were followed by LC–MS enabling the quantitation of compounds. Half-lives (t1/2) were calculated in Origin using a one-phase decay model with t1/2 = ln(2)/b, where b is the slope of a linear plot of natural logarithm (ln) of the remaining compound concentration (C) versus incubation time. Each condition was tested in triplicate.

[10] = target: T1, ADC-33; conditions: ADC-33; substrate
Method: Steady-state kinetic parameters were determined by combining pure enzyme with antibiotic substrates in 50 mM NaH2PO4, pH 7.4 at room temperature. Changes in absorbance were measured on a Cary 60 UV–Vis spectrophotometer (Agilent Technologies) and converted to velocity using the change in extinction coefficient specific to nitrocefin (ε482 = 17,400 M^–1·cm^–1), cephalothin (ε262 = 7660 M^–1·cm^–1), ceftazidime (ε260 = 8660 M^–1·cm^–1), cefotaxime (ε260 = 7500 M^–1·cm^–1), cefepime (ε260 = 750 M^–1·cm^–1), cefiderocol (ε259 = 9430 M^–1·cm^–1), and ceftolozane (ε254 = 6810 M^–1·cm^–1). Initial velocities were fit to the Michaelis–Menten equation yielding kcat and KM values. For ADC/substrate combinations in which the KM was too large to accurately determine both kcat and KM values, the initial velocities at kcat/KM values were calculated from linear fits of vo in low [S] ranges (<0.08 × KM).

[11] = tested on: ADC-30 in pBCSK(−) E. coli DH10B; test: Broth microdilution AST, ADC-30; type: cell-based; conditions: Escherichia coli, E. coli DH10B ADC-30, MB076 fixed at 10 mg/L in combinations, FDC in iron-depleted broth
Method: as §3, §4

[12] = tested on: ADC-162 in pBCSK(−) E. coli DH10B; test: Agar dilution AST, ADC-162; type: cell-based; conditions: Escherichia coli
Method: as §3, §4

[13] = tested on: ADC-7 in pBCSK(−) E. coli DH10B; test: Broth microdilution AST, ADC-7; type: cell-based; conditions: Escherichia coli, E. coli DH10B ADC-7, MB076 fixed at 10 mg/L in combinations, FDC in iron-depleted broth
Method: as §3, §4

[14] = tested on: ADC-219 in pBCSK(−) E. coli DH10B; test: Broth microdilution AST, ADC-219; type: cell-based; conditions: Escherichia coli, E. coli DH10B ADC-219, MB076 fixed at 10 mg/L in combinations, FDC in iron-depleted broth
Method: as §3, §4

[15] = tested on: ADC-7 in pBCSK(−) E. coli DH10B; test: Agar dilution AST, ADC-7; type: cell-based; conditions: Escherichia coli, E. coli DH10B ADC-7, MB076, S02030, VAB fixed at 10 mg/L
Method: as §3, §4

[16] = tested on: ADC-212 in pBCSK(−) E. coli DH10B; test: Agar dilution AST, ADC-212; type: cell-based; conditions: Escherichia coli, E. coli DH10B ADC-212, MB076, S02030, VAB fixed at 10 mg/L
Method: as §3, §4

[17] = tested on: ADC-219 in pBCSK(−) E. coli DH10B; test: Agar dilution AST, ADC-219; type: cell-based; conditions: Escherichia coli, E. coli DH10B ADC-219, MB076, S02030, VAB fixed at 10 mg/L
Method: as §3, §4

[18] = tested on: ADC-33 in pBCSK(−) E. coli DH10B; test: Broth microdilution AST, ADC-33; type: cell-based; conditions: Escherichia coli, E. coli DH10B ADC-33, MB076 fixed at 10 mg/L in combinations, FDC in iron-depleted broth
Method: as §3, §4

[19] = tested on: ADC-30 in pBCSK(−) E. coli DH10B; test: Agar dilution AST, ADC-30; type: cell-based; conditions: Escherichia coli, E. coli DH10B ADC-30, MB076, S02030, VAB fixed at 10 mg/L
Method: as §3, §4

With Nc1nnc(SCC(=O)N[C@@H](Cn2cc(C(=O)O)nn2)B(O)O)s1 [MB076, (R)-1-(2-(2-((5-Amino-1,3,4-thiadiazol-2-yl)thio)acetamido)-2-boronoethyl)-1H-1,2,3-triazole-4-carboxylic Acid] the half-life at 2.5 μM [1] was 29 h, the “increase of susceptibility to CAZ relative to S02030” value ([2]; ADC-33 variant, inhibitors 10 mg/L) was 3 fold and the Ki [3] was 58 ± 5 nM. The “reduction of the CTX MIC by MB076” value ([4]; ADC-212, MB076 10 mg/L) was 3 fold doubling dilution, the Ki [5] was 100 ± 4 nM and the Ki [6] was 210 ± 16 nM. For the same compound, the Ki [7] was 790 ± 39 nM, the Ki [8] was under 1000 nM and the half-life [9] was 33 h.
CC(C)(O/N=C(\C(=O)N[C@@H]1C(=O)N2C(C(=O)[O-])=C(C[n+]3ccccc3)CS[C@H]12)c1csc(N)n1)C(=O)O [ceftazidime] gave an MIC ([2]; Escherichia coli, E. coli DH10B ADC-33, MB076, S02030, VAB fixed at 10 mg/L) of 1020 µg/mL, a kcat [10] of 3.71 s^–1 and an MIC [11] of 128 µg/mL. The MIC [12] was 128 µg/mL, the MIC ([4]; Escherichia coli, E. coli DH10B ADC-212, MB076 fixed at 10 mg/L in combinations, FDC in iron-depleted broth) was 512 µg/mL and the MIC [13] was 64 µg/mL. It also gave an MIC [14] of 256 µg/mL, an MIC [15] of 64 µg/mL and an MIC [16] of 256 µg/mL. For the same compound, the MIC [17] was 64 µg/mL, the MIC [18] was 2050 µg/mL and the MIC [19] was 64 µg/mL.
